What was measured:
Test in all cases: fitness (endpoint OD595 vs no drug) (fraction); higher = more growth
S. aureus Newman = system: S. aureus Newman
Method in brief: (§1)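 Bacterial fitness was scored as optical density at the stationary-phase transition relative to the robust mean of no-drug control wells. Scores are capped at 1. The growth data were OD595 readings every 30 min for 14 h at 37 °C, background-subtracted against the first reading, from 384-well plates inoculated at OD595 0.01 in TSB, LB Lennox or CY.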

B. subtilis 168 = system: B. subtilis 168
Method in brief: as §1

S. aureus DSM 20231 = system: S. aureus DSM 20231
Method in brief: as §1
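Note: OD595 on entry to stationary phase over no-drug wells; at most 1.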

N[C@@H]1CONC1=O [Cycloserine D] + CCN(CC)CCOC(=O)c1ccc(N)cc1 [Procaine]
fitness
Conditions	first compound 0.125 µg/mL	first compound 0.25 µg/mL	first compound 0.375 µg/mL	first compound 0.5 µg/mL	first compound 0.75 µg/mL	first compound 1.5 µg/mL
B. subtilis 168, partner 85.5 µg/mL	0.95	0.899	–	0.921	–	–
B. subtilis 168, partner 171 µg/mL	0.908	0.851	–	0.894	–	–
B. subtilis 168, partner 342 µg/mL	0.925	0.874	–	0.907	–	–
S. aureus DSM 20231, partner 85.5 µg/mL	–	–	0.979	–	0.982	0.981
S. aureus DSM 20231, partner 171 µg/mL	–	–	0.996	–	0.998	≥ 1
S. aureus DSM 20231, partner 342 µg/mL	–	–	≥ 1	–	0.966	≥ 1
S. aureus Newman, partner 85.5 µg/mL	–	–	≥ 1	–	≥ 1	≥ 1
S. aureus Newman, partner 171 µg/mL	–	–	0.993	–	≥ 1	≥ 1
S. aureus Newman, partner 342 µg/mL	–	–	≥ 1	–	≥ 1	≥ 1

N[C@@H]1CONC1=O [Cycloserine D] + CN1C2=CC=CC=C2N=C3C1=CC=CC3=O [Pyocyanin]
fitness
Conditions	first compound 0.125 µg/mL	first compound 0.25 µg/mL	first compound 0.375 µg/mL	first compound 0.5 µg/mL	first compound 0.75 µg/mL	first compound 1.5 µg/mL
B. subtilis 168, partner 1.25 µg/mL	0.878	0.871	–	0.877	–	–
B. subtilis 168, partner 2.5 µg/mL	0.833	0.781	–	0.828	–	–
B. subtilis 168, partner 5 µg/mL	0.697	0.667	–	0.623	–	–
S. aureus DSM 20231, partner 1.25 µg/mL	–	–	0.983	–	0.985	0.962
S. aureus DSM 20231, partner 2.5 µg/mL	–	–	0.884	–	0.875	0.865
S. aureus DSM 20231, partner 5 µg/mL	–	–	0.826	–	0.855	0.777
S. aureus Newman, partner 1.25 µg/mL	–	–	0.85	–	0.856	0.868
S. aureus Newman, partner 2.5 µg/mL	–	–	0.8	–	0.764	0.826
S. aureus Newman, partner 5 µg/mL	–	–	0.457	–	0.378	0.42

N[C@@H]1CONC1=O [Cycloserine D] + CN(N=O)C(=O)N[C@@H](C=O)[C@@H](O)[C@H](O)[C@H](O)CO [Streptozotocin]
fitness
Conditions	first compound 0.125 µg/mL	first compound 0.25 µg/mL	first compound 0.375 µg/mL	first compound 0.5 µg/mL	first compound 0.75 µg/mL	first compound 1.5 µg/mL
B. subtilis 168, partner 0.15 µg/mL	0.991	0.979	–	0.975	–	–
B. subtilis 168, partner 0.3 µg/mL	0.963	0.98	–	0.931	–	–
B. subtilis 168, partner 0.6 µg/mL	0.984	0.988	–	0.958	–	–
S. aureus DSM 20231, partner 0.15 µg/mL	–	–	0.822	–	0.823	0.788
S. aureus DSM 20231, partner 0.3 µg/mL	–	–	0.867	–	0.846	0.806
S. aureus DSM 20231, partner 0.6 µg/mL	–	–	0.609	–	0.649	0.655
S. aureus Newman, partner 0.15 µg/mL	–	–	0.833	–	0.762	0.741
S. aureus Newman, partner 0.3 µg/mL	–	–	0.665	–	0.674	0.674
S. aureus Newman, partner 0.6 µg/mL	–	–	0.607	–	0.512	0.584

N[C@@H]1CONC1=O [Cycloserine D] + CN[C@@H]1[C@H](O)[C@H](NC)[C@H]2O[C@@]3(O)C(=O)C[C@@H](C)O[C@H]3O[C@@H]2[C@H]1O [Spectinomycin]
fitness
Conditions	first compound 0.125 µg/mL	first compound 0.25 µg/mL	first compound 0.375 µg/mL	first compound 0.5 µg/mL	first compound 0.75 µg/mL	first compound 1.5 µg/mL
B. subtilis 168, partner 2 µg/mL	≥ 1	0.985	–	0.992	–	–
B. subtilis 168, partner 4 µg/mL	0.947	0.934	–	0.957	–	–
B. subtilis 168, partner 8 µg/mL	0.906	0.924	–	0.879	–	–
S. aureus DSM 20231, partner 4 µg/mL	–	–	0.977	–	0.971	0.969
S. aureus DSM 20231, partner 8 µg/mL	–	–	0.944	–	0.981	0.932
S. aureus DSM 20231, partner 16 µg/mL	–	–	0.842	–	0.877	0.882
S. aureus Newman, partner 4 µg/mL	–	–	0.96	–	0.924	0.908
S. aureus Newman, partner 8 µg/mL	–	–	≥ 1	–	0.94	0.917
S. aureus Newman, partner 16 µg/mL	–	–	0.941	–	0.894	0.875

fitness, one replicate
Conditions	first compound 0.375 µg/mL	first compound 0.75 µg/mL	first compound 1.5 µg/mL
S. aureus DSM 20231, partner 32 µg/mL	0.726	0.786	0.736
S. aureus DSM 20231, partner 64 µg/mL	0.0858	0.0864	0.0563
S. aureus Newman, partner 32 µg/mL	0.575	0.596	0.501
S. aureus Newman, partner 64 µg/mL	0.0802	0.0265	0.0316

N[C@@H]1CONC1=O [Cycloserine D] + CN[C@H](CC(C)C)C(=O)N[C@H]1C(=O)N[C@@H](CC(N)=O)C(=O)N[C@H]2C(=O)N[C@H]3C(=O)N[C@H](C(=O)N[C@H](C(=O)O)c4cc(O)cc(O)c4-c4cc3ccc4O)[C@H](O)c3ccc(c(Cl)c3)Oc3cc2cc(c3O[C@@H]2O[C@H](CO)[C@@H](O)[C@H](O)[C@H]2O[C@H]2C[C@](C)(N)[C@H](O)[C@H](C)O2)Oc2ccc(cc2Cl)[C@H]1O [Vancomycin]
fitness
Conditions	first compound 0.375 µg/mL	first compound 0.75 µg/mL	first compound 1.5 µg/mL
S. aureus DSM 20231, partner 0.1875 µg/mL	≥ 1	0.973	≥ 1
S. aureus DSM 20231, partner 0.375 µg/mL	≥ 1	≥ 1	0.957
S. aureus DSM 20231, partner 0.75 µg/mL	≥ 1	≥ 1	≥ 1
S. aureus Newman, partner 0.1875 µg/mL	≥ 1	0.995	0.983
S. aureus Newman, partner 0.375 µg/mL	≥ 1	≥ 1	≥ 1
S. aureus Newman, partner 0.75 µg/mL	≥ 1	0.975	0.967

N[C@@H]1CONC1=O [Cycloserine D] + CO/N=C(\C(=O)N[C@@H]1C(=O)N2C(C(=O)[O-])=C(C[N+]3(C)CCCC3)CS[C@H]12)c1csc(N)n1 [Cefepime]
fitness
Conditions	first compound 0.375 µg/mL	first compound 0.75 µg/mL	first compound 1.5 µg/mL
S. aureus DSM 20231, partner 0.125 µg/mL	0.907	0.936	0.99
S. aureus DSM 20231, partner 0.25 µg/mL	0.92	0.97	0.952
S. aureus DSM 20231, partner 0.5 µg/mL	0.853	0.884	0.862
S. aureus Newman, partner 0.125 µg/mL	0.894	0.925	0.89
S. aureus Newman, partner 0.25 µg/mL	0.808	0.854	0.852
S. aureus Newman, partner 0.5 µg/mL	0.782	0.801	0.779

N[C@@H]1CONC1=O [Cycloserine D] + CO[C@@]12[C@H](COC(N)=O)C3=C(C(=O)C(C)=C(N)C3=O)N1C[C@@H]1N[C@@H]12 [Mitomycin C]
fitness
Conditions	first compound 0.375 µg/mL	first compound 0.75 µg/mL	first compound 1.5 µg/mL
S. aureus DSM 20231, partner 0.0156 µg/mL	0.746	0.739	0.71
S. aureus DSM 20231, partner 0.0312 µg/mL	0.716	0.716	0.711
S. aureus DSM 20231, partner 0.0625 µg/mL	0.528	0.542	0.513
S. aureus Newman, partner 0.0156 µg/mL	0.682	0.71	0.732
S. aureus Newman, partner 0.0312 µg/mL	0.656	0.651	0.693
S. aureus Newman, partner 0.0625 µg/mL	0.567	0.5	0.555

— the supplement of paper PMC10627819
